Results published in patent US7612208B2, “Crystalline form of the salt of 4-(3-chloro-4-(cyclopropylaminocarbonyl)aminophenoxy)-7-methoxy-6-quinolinecarboxamide or the solvate of the salt and a process for preparing the same” (Eisai R&D Management Co., Ltd., priority 2003, dated 2009).

Experiments:
[1] = Powder X-ray diffraction with a treatment of humidification; type: physicochemical; details: room temperature
Experimental: Powder X-ray diffraction was measured under the measurement conditions similar to those in 4. (powder X-ray diffraction) of Test Example 3. Humidification was carried out using a humidity control unit HUM-1A (manufactured by Rigaku Denki K. K.)), to sequentially adjust relative humidity to 3%, 30%, 50%, 60%, 70%, 75%, 80% and 85% at room temperature.

[2] = Test for measuring dissolution rate (rotating disk method); type: physicochemical; details: 2nd fluid pH 6.8, 37° C., 50 rpm
Experimental: The dissolution rates of the following crystals were measured under the conditions described below by the rotating disk method (see, J. H. Woods et al., J. Pharm. Soc., 54, 1068 (1955)): a crystalline form of the free carboxamide (obtained in Preparation Example 1), a crystalline form of the hydrochloride of the carboxamide (obtained in Example 1), a crystalline form of the hydrobromide of the carboxamide (obtained in Example 2), a crystalline form of the methanesulfonate (hereunder, referred to as “mesylate”) of the carboxamide (Form A) (obtained in Example 5), a crystalline form of the mesylate of the carboxamide (Form C) (obtained in Example 7) and a crystalline form of the ethanesulfonate (hereunder, referred to as “esylate”) (Form β) (obtained in Example 12). The dissolution rates were calculated based on a range in which linearity was maintained in the relation between concentration and time at the initial stage of dissolution.
(Rotating Disk Method Conditions)
• Solvent: “2nd fluid” (pH 6.8, 500 mL) as described in Japanese Pharmacopoeia 14th Edition, General Tests (disintegration test) • Temperature: 37° C. • Disk rotation speed: 50 rpm • Area of powder contacting with solvent on disk: 1 cm^2 • Sampling amount: approx. 1 mL (HPLC Conditions) • Column: Cadenza CD-18 (Imtakt Corporation; inner diameter 4.6 mm, Column length 100 mm, particle size 3 μm) • Column temperature: 40° C. • Flow rate: 1.0 mL/min • Mobile phase:
Concentration of solution B: 20% • Injection amount: 100 μL • Detection: ultraviolet absorbance photometer (wavelength: 252 nm) • Temperature of auto sampler: 25° C. [Results]

[3] = Study of pharmacokinetics in beagle dogs; type: in vivo; details: mean ± standard error; for BA: beagle dogs n=3, oral 3 mg/kg as free form vs single intravenous administration of free form
Experimental: A crystalline form of the free from of the carboxamide (obtained in Preparation Example 1), a crystalline form of the hydrobromide of the carboxamide (obtained in Example 2) and a crystalline form of the mesylate of the carboxamide (Form A) (obtained in Example 5) were grounded in a mortar, encapsulated in a gelatin capsule, and then administered orally to beagle dogs (n=3). After administration, 10 mL of water was further administered orally. The dose was set such that it was equivalent to 3 mg/kg as a free form, and the beagle dogs were fasted from the day before administration, and fed again 8 hours after the administration.
To calculate bioavailability (BA), a test was conducted using a single intravenous administration. More specifically, a crystalline form of the free from of the carboxamide was dissolved in a solution containing 10% dimethyl sulfoxide, 50% polyethylene glycol 400 and 40% 0.1 M aqueous solution of hydrochloric acid and administered intravenously through cephalic vein of the foreleg.
The plasma concentration of the carboxamide was measured by HPLC-UV method after sampling blood from cephalic vein of the foreleg. Based on the concentration, pharmacokinetic parameters were calculated for each individual by the moment method. Further, based on the calculated parameters, the mean value and standard error thereof were calculated.

angiogenesis = details: free-form product; Example 368 of WO 02/32872; cited from earlier work
c-Kit kinase = c-Kit kinase (Homo sapiens, UniProt P10721); details: cited from earlier work
c-Kit kinase, sequence (P10721 26-976): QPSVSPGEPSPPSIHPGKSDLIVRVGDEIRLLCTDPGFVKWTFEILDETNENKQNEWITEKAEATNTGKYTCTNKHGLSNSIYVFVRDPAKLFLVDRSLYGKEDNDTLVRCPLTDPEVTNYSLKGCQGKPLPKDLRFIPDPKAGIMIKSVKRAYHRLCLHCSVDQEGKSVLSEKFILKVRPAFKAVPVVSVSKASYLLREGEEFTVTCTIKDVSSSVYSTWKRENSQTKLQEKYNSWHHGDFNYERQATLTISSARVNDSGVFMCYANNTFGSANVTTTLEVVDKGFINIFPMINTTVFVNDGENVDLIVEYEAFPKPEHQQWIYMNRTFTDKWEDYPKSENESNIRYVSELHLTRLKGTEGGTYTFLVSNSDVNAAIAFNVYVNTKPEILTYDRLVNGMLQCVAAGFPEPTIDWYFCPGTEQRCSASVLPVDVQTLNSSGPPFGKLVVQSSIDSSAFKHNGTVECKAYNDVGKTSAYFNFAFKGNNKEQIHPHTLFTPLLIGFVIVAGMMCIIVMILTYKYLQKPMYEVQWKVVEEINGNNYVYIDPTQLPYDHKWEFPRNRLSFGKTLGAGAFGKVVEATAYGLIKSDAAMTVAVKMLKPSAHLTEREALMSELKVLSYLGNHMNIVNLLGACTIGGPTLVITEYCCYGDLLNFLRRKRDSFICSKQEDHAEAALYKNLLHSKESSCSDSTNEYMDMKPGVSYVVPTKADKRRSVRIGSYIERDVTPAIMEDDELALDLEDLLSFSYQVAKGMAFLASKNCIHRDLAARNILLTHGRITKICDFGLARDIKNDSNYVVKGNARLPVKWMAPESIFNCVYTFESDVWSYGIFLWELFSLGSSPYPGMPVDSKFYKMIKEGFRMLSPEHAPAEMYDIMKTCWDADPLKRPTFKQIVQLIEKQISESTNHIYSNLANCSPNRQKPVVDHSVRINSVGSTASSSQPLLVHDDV

[4] = Temperature-controlled powder X-ray diffraction; type: physicochemical; details: 2° C./min
Experimental: Powder X-ray diffraction was conducted under the measurement conditions similar to those in 4. (powder X-ray diffraction) of Test Examples 3. The temperature was increased according to the following conditions. • Temperature controller: PCT-20 (manufactured by Rigaku Denki K.K.) • Rate for the increase of the temperature: 2° C./min • Measurement temperatures: 30° C., 40° C., 60° C., 80° C., 120° C., 140° C., 180° C., 200° C., 205° C., 210° C. and 215° C. [Results]

[5] = Evaluation of hygroscopicity (storage 1 week; water content, powder X-ray diffraction); type: physicochemical
Experimental: The hygroscopicity and solid stability of a crystalline form of the mesylate of the carboxamide (Form A) (obtained in Example 5), a crystalline form of the mesylate of the carboxamide (Form C) (obtained in Example 7), a crystalline form of the acetic acid solvate of the mesylate of the carboxamide (Form I) (obtained in Example 10) and a crystalline form of the esylate of the carboxamide (Form β) (obtained in Example 12) were measured under the following conditions.
1. Storage Conditions for the Hygroscopicity Test (Period: 1 Week)
a-1. 25° C., relative humidity 75%
b-1. 25° C., relative humidity 93%
Analysis was carried out according to “X-Ray Powder Diffraction Method” described in Japanese Pharmacopoeia 14th Edition, General Tests (B-614 to 619) under the following measurement conditions. • Apparatus: RINT-2000 (manufacture by Rigaku Denki K. K.) • X-ray: CuKα ray • Monochrometer: curved crystal monochrometer • Goniometer: vertical goniometer • Counter: scintillation counter • Applied voltage: 40 kV • Charging current: 200 mA • Scan speed: 5°/min • Scan axis: 2θ/θ • Scan range; 2θ+5° to 40° • Divergent slit: 0.5° • Scattering slit: 0.5° • Receiving slit: 0.3 mm 5. Measurement of Water Content
Measurement was carried out according to the Water Determination as described in Japanese Pharmacopoeia 14th Edition, General Tests (B-318 to 331) using 6 to 10 mg of each crystal.

[6] = Evaluation of solid stability (storage 2 weeks; total impurity by HPLC, water content, powder X-ray diffraction); type: physicochemical
Experimental: 2. Storage Conditions for the Solid Stability Test (Period: 2 Weeks) a-2. −20° C. (well closed) b-2. 25° C., light irradiation (1000 1×; shading with aluminum foil, well closed) c-2. 25° C., light irradiation (1000 1×; well closed) […]
e-2. 60° C. (well closed except the following case: slightly open in the case of a crystalline form of the acetic acid solvate of the mesylate (Form I))
3. Method for Measuring the Impurity Amount by HPLC
After storage, the sample solution was prepared by adding a mixed solvent of water and methanol (3:1) to each crystal at 0.1 mg/mL as final concentration.
Tests were conducted by the HPLC method for these sample solutions under the measurement conditions described below, and the eluted peak areas were measured to determine the total impurity amount by the relative area method (impurities of 0.05% or more were counted).
(Formula for Calculating Total Impurity Amount)
• Individual impurity amount (%)=(the peak area for the individual impurity)×100/{(the peak area for carboxamide)+(sum of the peak areas for impurities)} • Total impurity amount (%)=sum of individual impurity amounts (HPLC Measurement Conditions) • Column: Mightysil RP-18 GP (Kanto Kagaku; inner diameter 4.6 mm, column length 150 mm, particle size 3 μm) • Column temperature: constant temperature in vicinity of 40° C. • Flow rate: 1.0 mL/min • Mobile phase:
Solution B: CH3CN:H2O:HClO4=900:100:1 (v/v/v) • Gradient conditions […]
• Injection amount: 10 μL • Detection: ultraviolet absorbance photometer (wavelength: 252 nm) • Temperature of auto sampler: constant temperature in vicinity of 10° C. 4. Powder X-ray Diffraction […]
Measurement of Water Content

[7] = beagle dogs n=3, oral, gelatin capsule, 3 mg/kg as free form, fasted
[8] = 25° C., relative humidity 75% or 93%, 1 week
[9] = a-2: −20° C. (well closed), 2 weeks
[10] = b-2: 25° C., light irradiation 1000 lx, shading with aluminum foil, well closed, 2 weeks
[11] = c-2: 25° C., light irradiation 1000 lx, well closed, 2 weeks
[12] = d-2: 40° C., relative humidity 75%, 2 weeks
[13] = e-2: 60° C., 2 weeks (well closed; slightly open for Form I)

COc1cc2nccc(Oc3ccc(NC(=O)NC4CC4)c(Cl)c3)c2cc1C(N)=O.CS(=O)(=O)O [mesylate (Form B), Methanesulfonate of 4-(3-chloro-4-(cyclopropylaminocarbonyl)aminophenoxy)-7-methoxy-6-quinolinecarboxamide]
crystal transition on humidification ([1]; relative humidity from 3% to 70%): did not exhibit a crystal transition
crystal transition on humidification ([1]; relative humidity of 75% and 80%): mixture of crystalline forms of the mesylate (Form B) and (Form C)
crystal transition on humidification ([1]; relative humidity of 85%): complete transition to a crystalline form of the mesylate (Form C)

COc1cc2nccc(Oc3ccc(NC(=O)NC4CC4)c(Cl)c3)c2cc1C(N)=O [free form, 4-(3-chloro-4-(cyclopropylaminocarbonyl)aminophenoxy)-7-methoxy-6-quinolinecarboxamide]
dissolution rate [2]: 0.8 μg/min/cm^2
BA [3]: 9.1 ± 0.4%
AUC(0-t) ([3]; dog, plasma, beagle dogs n=3, oral, gelatin capsule, 3 mg/kg as free form, fasted, read-out: AUC0-24hr): 600 ng·h/mL
Cmax ([3]; dog, plasma, beagle dogs n=3, oral, gelatin capsule, 3 mg/kg as free form, fasted, read-out: Maximum plasma concentration (Cmax)): 53.3 ± 9.9 ng/mL
concentration at 24 h ([3]; dog, plasma, beagle dogs n=3, oral, gelatin capsule, 3 mg/kg as free form, fasted, read-out: plasma concentration after 24 hours (C24hr)): 24 ± 9 ng/mL
Tmax ([3]; dog, plasma, beagle dogs n=3, oral, gelatin capsule, 3 mg/kg as free form, fasted, read-out: time to reach maximum plasma concentration (Tmax)): 1.17 ± 0.4 h
angiogenesis inhibition (angiogenesis): excellent angiogenesis inhibition
inhibitory action for c-Kit kinase (c-Kit kinase): strong inhibitory action

COc1cc2nccc(Oc3ccc(NC(=O)NC4CC4)c(Cl)c3)c2cc1C(N)=O.CS(=O)(=O)O.C[S+](C)[O-] [Dimethyl Sulfoxide Solvate of Methanesulfonate of 4-(3-chloro-4-(cyclopropylaminocarbonyl)aminophenoxy)-7-methoxy-6-quinolinecarboxamide]
crystal transition on heating ([4]; temperatures from 30° C. to 80° C.): crystal transition was not observed
crystal transition on heating ([4]; temperatures of 120° C. or more): transition to a crystalline form of the mesylate (Form C) was observed

COc1cc2nccc(Oc3ccc(NC(=O)NC4CC4)c(Cl)c3)c2cc1C(N)=O.CS(=O)(=O)O [mesylate (Form A), Methanesulfonate of 4-(3-chloro-4-(cyclopropylaminocarbonyl)aminophenoxy)-7-methoxy-6-quinolinecarboxamide]
dissolution rate [2]: 11.8 μg/min/cm^2
BA [3]: 46.2 ± 5.9%
AUC0-24hr [3, 7]: 3000 ± 400 ng·h/mL
Maximum plasma concentration (Cmax) [3, 7]: 397.1 ± 100.1 ng/mL
plasma concentration after 24 hours (C24hr) [3, 7]: 17.1 ± 2.5 ng/mL
time to reach maximum plasma concentration (Tmax) [3, 7]: 1.67 ± 0.3 h
change in appearance and crystal transition [5, 8]: Neither remarkable change in appearance nor crystal transition was observed
change of water content [5, 8]: did not change remarkably
hygroscopicity [5, 8]: not observed
water content ([5]; a-1: 25° C., relative humidity 75%, 1 week): 0.6%
water content ([5]; b-1: 25° C., relative humidity 93%, 1 week): 0.7%
water content ([5]; hygroscopicity test, initial): 0.7%
total impurity [6, 9]: 3.90%
water content [6, 9]: 0.0%
total impurity [6, 10]: 3.95%
water content [6, 10]: 0.0%
total impurity [6, 11]: 4.23%
water content [6, 11]: 0.1%
total impurity [6, 12]: 3.90%
water content [6, 12]: 0.2%
total impurity [6, 13]: 3.97%
water content [6, 13]: 0.2%
changes in water content and appearance, crystal transition ([6]; solid stability test, 2 weeks, all storage conditions): neither remarkable changes in water content and appearance nor crystal transition was observed
water content ([6]; solid stability test, initial): 0.3%
total impurity ([6]; solid stability test, initial, HPLC relative area): 4.02%
